We go through 27 compounds from patent publication US6436915B1, “Pyrazole compounds” (Kinetek Pharmaceuticals, Inc., priority 2000, dated 2002).

For one test, the target named is T1, integrin linked kinase (Homo sapiens, UniProt Q13418).
T1 construct: The target integrin linked kinase is a full-length recombinant protein expressed in sF9 insect cells by baculovirus infection; GST (N); made in house; host or cells: Baculovirus; virus made in Sf9 cells, litre-scale expression in Hi5 insect cells
T1 sequence (Q13418 1-452): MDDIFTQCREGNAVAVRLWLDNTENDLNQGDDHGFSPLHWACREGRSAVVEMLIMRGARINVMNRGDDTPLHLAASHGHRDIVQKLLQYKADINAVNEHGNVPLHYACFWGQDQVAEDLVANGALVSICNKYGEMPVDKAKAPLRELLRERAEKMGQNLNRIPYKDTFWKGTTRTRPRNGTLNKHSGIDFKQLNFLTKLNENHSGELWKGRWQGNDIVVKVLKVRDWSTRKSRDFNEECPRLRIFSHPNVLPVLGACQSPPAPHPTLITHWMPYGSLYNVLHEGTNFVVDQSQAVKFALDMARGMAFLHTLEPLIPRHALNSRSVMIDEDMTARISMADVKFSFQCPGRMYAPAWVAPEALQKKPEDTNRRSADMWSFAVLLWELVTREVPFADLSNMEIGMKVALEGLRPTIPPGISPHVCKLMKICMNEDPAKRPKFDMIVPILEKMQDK
The test is described as follows: In vitro kinase inhibition assay, integrin linked kinase (radioactive phosphate incorporation, scintillation counting). It is filed as biochemical. Conditions: full-length recombinant ILK expressed in insect cells; substrate CKRRRLASLR-amide; 15 min at room temperature. Here is the method: Compounds were screened using a series of disease related kinase targets, such as integrin linked kinase-1. Synthesized libraries of compounds are tested against each of the targets to find compounds that inhibit one of the targets preferentially. The desired in vitro potency of the inhibitor is such that the compound is useful as a therapeutic agent, i.e. in the nanomolar or micromolar range.
Inhibition of the targets is measured by scintillation counting; the incorporation of radioactive phosphate onto a specific substrate which is immobilized onto a filter paper at the end of the assay. To provide meaningful measurements of inhibition, the assays are performed both in the absence and presence of specific and known inhibitors, and the amount of incorporated radioactivity is compared to provide a baseline measurement.
The baseline activity is the amount of radioactivity incorporated in the absence of inhibitor. The amount of radioactivity incorporated in the presence of an inhibitor is called the ‘sample activity’, and the % inhibition is expressed by the following formula:
% inhibition=100−sample activity/baseline activity*100)
and is usually expressed in conjunction with the compound concentration. By using a range of inhibitor concentrations, the IC50 of an inhibitor is estimated (i.e. the concentration at which enzymatic activity is reduced by 50%).
Inhibition Assay: Compounds listed in Table 1 were lyophilized and stored at −20° C. Stock solutions were made by weighing out the compounds and dissolving them in dimethyl sulfoxide (DMSO) to a standard concentration, usually 20 mM, and stored at −20° C. The compounds were diluted to a starting intermediate concentration of 250 μM in 1% DMSO, then serially diluted across a row of a 96 well plate using serial 2 fold dilution steps. Diluted 100% DMSO was used as a negative control. 5 μl of each compound dilution were robotically pipetted to Costar serocluster plates maintaining the same plate format. All assays consisted of the following volumes:
and were then incubated 15 min at room temperature.
From each reaction, 10 μl of reaction mix was spotted onto Millipore Multiscreen-PH opaque plates and washed 2×10 min in 1% phosphoric acid. The plates were dried for at 40° C. for 30 min, then the substrate phosphate complexes were quantitated by scintillation counting. These Millipore plates are in a 96 well format with immobilized P81 phosphocellulose membranes. Both the phosphorylated and non-phosphorylated form of the substrate bind to the membrane while ATP (unincorporated phosphate) is removed in the subsequent wash steps.
Integrin Linked Kinase: The target integrin linked kinase is a full-length recombinant protein expressed in sF9 insect cells by baculovirus infection. The ILK1 substrate is CKRRRLASLR-amide.
Recombinant ILK protein was expressed using cultured insect cells and a baculovirus expression system. Standard techniques for DNA manipulation were used to produce recombinant DNA molecules and baculoviruses (Sambrook. J., Fritsch, E. F. and Maniatis, T. 1989. Molecular cloning, a laboratory manual. Second edition. Cold Spring Harbor Laboratory Press. NY; Crossen, R. and Gruenwald, S. 1998. Baculovirus expression Vector System Manual. 5th Edition. Pharmingen, San Diego, Calif.) but the isolation of active ILK required some ingenuity.
The ILK open reading frame (Hannigan et al., supra.), excluding the 5′ and 3′ untranslated regions, was inserted into the baculovirus transfer vector pAcG2T (Pharmingen) to produce a GST fusion protein under the control of the strong AcNPV polyhedrin promoter. A large scale plasmid preparation of the resulting transfer construct was made using a Qiagen Plasmid Midi Kit. This ILK transfer construct was then co-transfected with BaculoGold DNA (Pharmingen) into Sf9 insect cells (Invitrogen) and a high titre preparation of GST-ILK recombinant baculovirus was produced by amplification in Sf9 cells. […]

Test [1] deals with Lewis Lung Carcinoma cells. The test is described as follows: Anti-tumor activity in a murine model using Lewis Lung Carcinoma cells (FIG. 1). It is filed as in vivo. The following applies: FIG. 1 legend only.

The term IC50 denotes the concentration needed to halve the response being measured. With `NC1=NN=C(N)C1=NNCC1CCNCC1` [KP-27386, 3,5-diamino-4-(4-piperidinylmethyl)hydrazonopyrazole], the IC50 at integrin linked kinase came out at 13 µM.

`NC1=NN=C(N)C1=NNN1CCOCC1` [KP-27289, 3,5-diamino-4-morpholinylhydrazonopyrazole]: the IC50 at integrin linked kinase amounted to 9.6 µM.

Consider `COc1ccc(NN=C2C(=O)NNC2=O)cc1` [KP-23204, 4-(p-methoxyphenyl)hydrazonopyrazolin-3,5-dione], for which the IC50 on integrin linked kinase was over 20 µM.

Turning to `NC1=NN=C(N)C1=NNc1c(O)ccc2ccccc12` [KP-27393, 3,5-diamino-4-(2-hydroxynaphthyl)hydrazonopyrazole], the IC50 at integrin linked kinase was found to be 3 µM.

Regarding `COc1ccc(N/N=C2/C(=N)NN=C2N)cc1` [KP-15792, 3,5-diamino-4-(p-methoxyphenyl)hydrazonopyrazole], the IC50 on integrin linked kinase was 1 µM. For the same compound, the anti-tumor activity entry in test [1] is “anti-tumor activity”.

Consider `NC1=NN=C(N)C1=NNc1ccc(C(=O)O)cc1` [KP-27388, 4-[N′-(3,5-diaminopyrazol-4-ylidene)hydrazino]benzoic acid], for which, on integrin linked kinase, the IC50 came out at 13 µM.

As to `NC1=NN=C(N)C1=NNc1ccc(Cl)cc1` [KP-27390, 3,5-diamino-4-(p-chlorophenyl)hydrazonopyrazole], the IC50 at integrin linked kinase was found to be 1.2 µM.

In the case of `NC1=NN=C(N)C1=NNc1ccc(S(=O)(=O)O)c2ccccc12` [KP-27295, 4-[N′-(3,5-Diaminopyrazol-4-ylidene)hydrazino]naphthalene-1-sulfonic acid], at integrin linked kinase, the IC50 is 19.3 µM.

As to `COc1ccc(NN=C2C(N)=NN=C2N)cc1O` [KP-23197, 3,5-diamino-4-(3-hydroxy-4-methoxyphenyl)hydrazonopyrazole], the IC50 on integrin linked kinase was found to be 4 µM.

Turning to `NC1=NNC(=O)C1/N=N/c1ccccc1` (stereo not shown) [KP-23198, 3-amino-4-phenylazo-2-pyrazolin-5-one], the IC50 on integrin linked kinase was 17.1 µM.

Take `COc1ccc(/N=N/C2C(=O)NN=C2N)cc1O` (stereo not shown) [KP-23201, 3-amino-4-(3-hydroxy-4-methyoxyphenylazo)-2-pyrazolin-5-one]: at integrin linked kinase, the IC50 stood at 18 µM.

For `NC1=NN=C(N)C1=NNc1cc[nH]n1` [KP-27292, 3,5-diamino-4-(3-pyrazolyl)hydrazonopyrazole], the IC50 at integrin linked kinase came out at 8 µM.

`NC1=NN=C(N)C1=NNc1ccc(O)cc1` [KP-27389, 3,5-diamino-4-(p-hydroxyphenyl)hydrazonopyrazole]: the IC50 at integrin linked kinase was over 20 µM.

With `O=C1NNC(=O)C1=NNc1ccccc1` [KP-23202, 4-phenylhydrazonopyrazolin-3,5-dione], the IC50 on integrin linked kinase is over 20 µM.

As for `NC1=NN=C(N)C1=NNc1ccc(S(=O)(=O)O)cc1` [KP-27288, 4-[N′-(3,5-diaminopyrazole-4-ylidene)hydrazino]benzenesulfonic acid], the IC50 on integrin linked kinase is over 20 µM.

`N=C1NN=C(N)/C1=N/Nc1ccccc1` [KP-23194, 3,5-diamino-4-phenylhydrazonopyrazole]: at integrin linked kinase, the IC50 was 0.6 µM.

As to `NC1=NN=C(N)C1=NNc1cccc2ccccc12` [KP-27294, 3,5-diamino-4-(1-naphthyl)hydrazonopyrazole], the IC50 on integrin linked kinase stood at 0.6 µM.

As for `NC1=NN=C(N)C1=NNCCN1CCOCC1` [KP-27290, 3,5-diamino-4-(2-morpholinylethyl)hydrazonopyrazole], the IC50 at integrin linked kinase was found to be 8.2 µM.

Turning to `CC(=O)Nc1ccc(NN=C2C(N)=NN=C2N)cc1` [KP-27392, 3,5-diamino-4-(p-acetoaminophenyl)hydrazonopyrazole], the IC50 on integrin linked kinase was 5 µM.

As to `Cc1ccc(/N=N/C2C(=O)NN=C2N)cc1` (stereo not shown) [KP-23199, 3-amino-4-(p-methylphenylazo)-2-pyrazolin-5-one], the IC50 on integrin linked kinase is over 20 µM.

Consider `Cc1ccc(NN=C2C(=O)NNC2=O)cc1` [KP-23203, 4-(p-methylphenyl)hydrazonopyrazolin-3,5-dione], for which, at integrin linked kinase, the IC50 was over 20 µM.

Take `NC1=NN=C(N)C1=NNc1ncc[nH]1` [KP-27291, 3,5-diamino-4-(2-imidazolyl)hydrazonopyrazole]: at integrin linked kinase, the IC50 is 28 µM.

Take `NC1=NN=C(N)C1=NNc1nccs1` [KP-27293, 3,5-diamino-4-(2-thiazolyl)hydrazonopyrazole]: the IC50 at integrin linked kinase amounted to 0.9 µM.

For the compound `NC1=NN=C(N)C1=NNc1nccnn1` [KP-27387, 3,5-diamino-4-(3-[1,2,4]triazinyl)hydrazonopyrazole], at integrin linked kinase, the IC50 was over 20 µM.

As for `Cc1ccc(NN=C2C(N)=NN=C2N)cc1` [KP-23195, 3,5-diamino-4-(p-methylphenyl)hydrazonopyrazole], the IC50 at integrin linked kinase stood at 5.3 µM.

In the case of `COc1ccc(NN=C2C(=O)NNC2=O)cc1O` [KP-23205, 4-(3-hydroxy-4-methyoxyphenyl)hydrazonopyrazolin-3,5-dione], at integrin linked kinase, the IC50 was over 20 µM.

As for `COc1ccc(/N=N/C2C(=O)NN=C2N)cc1` (stereo not shown) [KP-23200, 3-amino-4-(p-methoxyphenylazo)-2-pyrazolin-5-one], the IC50 on integrin linked kinase is over 20 µM.
